Among the test systems are ACHN renal; EKVX NSCLC; HL-60(TB) leukemia; HS 578T breast; MDA-MB-231 breast; NCI-H460 lung; RXF 393 renal; SF-295 CNS; SN12C renal; SR leukemia.
Test in all cases: NCI anticancer screen, dose series, 48 h

SMILES strings stand for the structures.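 All cell lines were grown in 96-well plates and treated with compound for 48 hours. TGI: total growth inhibition.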

The source of these data is PubChem BioAssay (NCI).

For `Cc1ccc(S(=O)(=O)N/N=c2/sc3ccccc3n2C)cc1`, the TGI in the assay with ACHN renal, in the assay on EKVX NSCLC, in the assay with HL-60(TB) leukemia, in the assay with HS 578T breast, in the assay with MDA-MB-231 breast and in the assay with NCI-H460 lung was > 100 µM each time. In addition, the TGI with RXF 393 renal, in the assay on SF-295 CNS, in the assay on SN12C renal and in the assay on SR leukemia was > 100 µM in each case.
In the case of `C[n+]1c2ccccc2n2c3ccccc3c(NCCCn3ccnc3)c(C#N)c21`, the TGI with ACHN renal is > 27.7 µM; in the assay on EKVX NSCLC, 24.1 µM; in the assay with HL-60(TB) leukemia, 20.3 µM; with HS 578T breast, 6.78 µM; in the assay on MDA-MB-231 breast it was 9.18 µM; in the assay on NCI-H460 lung, 3.63 µM. Also, the TGI was 3.48 µM with RXF 393 renal, 17.4 µM in the assay with SF-295 CNS, 4.09 µM in the assay with SN12C renal and > 100 µM in the assay with SR leukemia.
Consider `CN(C)c1cccc2c(S(=O)(=O)NCCN)cccc12`, for which the TGI in the assay with ACHN renal, in the assay with EKVX NSCLC, with HL-60(TB) leukemia, with HS 578T breast, in the assay on MDA-MB-231 breast and in the assay with NCI-H460 lung was > 100 µM throughout. The TGI in the assay with RXF 393 renal, with SF-295 CNS, with SN12C renal and in the assay with SR leukemia was > 100 µM in each case.
As for `[N-]=[N+]=CC(=O)C1CCN(c2ccccc2)C1=O` (stereo not given), the TGI with ACHN renal, in the assay on EKVX NSCLC, in the assay on HL-60(TB) leukemia, with HS 578T breast, in the assay on MDA-MB-231 breast and in the assay with NCI-H460 lung was > 10 µM each time. Also, the TGI in the assay on RXF 393 renal, with SF-295 CNS, with SN12C renal and with SR leukemia was > 10 µM in each case.
Consider `Cc1nnc(SCc2nc(C#N)c(C#N)nc2CSc2nnc(C)s2)s1`, for which the TGI with ACHN renal is 22.5 µM; in the assay with EKVX NSCLC, 36.5 µM; in the assay on HL-60(TB) leukemia it was 7.74 µM; in the assay with HS 578T breast, > 59.4 µM; in the assay on MDA-MB-231 breast, 31.4 µM; in the assay on NCI-H460 lung, > 59.2 µM. Moreover, the TGI was 18 µM with RXF 393 renal, > 100 µM with SF-295 CNS, 38.2 µM in the assay with SN12C renal and 51.4 µM in the assay with SR leukemia.
For the compound `O=C(/C=C/c1ccccc1)c1cc(CN2CCOCC2)c(O)c(CN2CCOCC2)c1`, the TGI with ACHN renal was 8.26 µM; in the assay with EKVX NSCLC it was 98.5 µM; in the assay on HL-60(TB) leukemia, 27.4 µM; with HS 578T breast, > 100 µM; in the assay with MDA-MB-231 breast, 32.7 µM; in the assay on NCI-H460 lung it was 19.4 µM. Besides, the TGI with RXF 393 renal is 35.8 µM; in the assay with SF-295 CNS, 34.8 µM; in the assay with SN12C renal, 25.3 µM; in the assay on SR leukemia, 24.2 µM.
With `CCCCCCCCCCCCCCCCNc1nc(=O)n(C2OC(C)C(O)C2O)cc1F` (stereo not given), the TGI came out at 29 µM in the assay on ACHN renal; 35.3 µM with EKVX NSCLC; 75.1 µM in the assay with HL-60(TB) leukemia; 56.3 µM with HS 578T breast; 42 µM in the assay on MDA-MB-231 breast; 33.9 µM in the assay with NCI-H460 lung. Moreover, the TGI in the assay on RXF 393 renal is 44.8 µM; in the assay with SF-295 CNS it was 43 µM; in the assay on SN12C renal, 40.6 µM; in the assay on SR leukemia, > 100 µM.
Take `CC1(C)CCC[C@@]2(C)C1CC[C@@]1(CO)O[C@H](C3=CC(=O)OC3O)C[C@H]12` (stereo not given in full): the TGI with ACHN renal was > 53.5 µM; with EKVX NSCLC it was 60.3 µM; in the assay with HL-60(TB) leukemia it was 4.31 µM; in the assay with HS 578T breast, 38.4 µM; in the assay on MDA-MB-231 breast, 36.1 µM; with NCI-H460 lung, 38.8 µM. Also, the TGI in the assay with RXF 393 renal turned out to be 23.7 µM; in the assay with SF-295 CNS it was 50.5 µM; in the assay on SN12C renal it was 26.6 µM; in the assay with SR leukemia, 7.58 µM.
Turning to `O=C(N/N=C/c1ccccc1)c1c(F)c(F)c(F)c(F)c1F`, the TGI in the assay on ACHN renal, in the assay on EKVX NSCLC, in the assay with HL-60(TB) leukemia, in the assay on HS 578T breast, in the assay with MDA-MB-231 breast and in the assay on NCI-H460 lung was > 100 µM in each case. Moreover, the TGI in the assay with RXF 393 renal, in the assay with SF-295 CNS, in the assay with SN12C renal and with SR leukemia was > 100 µM throughout.
